Earlier results in patent US20140349957A1, “Compositions for Photodynamic Therapy Chemically Modified to Increase Epithelia Penetration and Cellular Bioavailability” (YAGNA LIMITED, priority 2011, published 2014).

Test system: cells which have incorporated the drug

Question: With `Cc1cn([C@H]2C[C@H](O)[C@@H](CO)O2)c(=O)[nH]c1=S` [4 thiothymidine, 4-thiothymidine] as the molecule, how does the “toxicity of exposure to drug alone” value (drug alone, no UV-A) read?
Answer: does not result in appreciable toxicity

Question: What about the “toxicity to cells upon excitation” value (excitation at 335 nm (UV-A)) of the same molecule?
Answer: results in toxicity to the cells which have incorporated the drug
